18 compounds from patent publication US10077261B2, “Imidazolin-5-one derivative useful as FASN inhibitors for the treatment of cancer” (Janssen Pharmaceutica NV, priority 2012, dated 2018) can be followed below.

This assay addresses T1, hFASN enzyme (full length) (Homo sapiens, UniProt P49327).
T1 construct: 10 μL hFASN enzyme (full length, 300 ng, purified in house); made in house
Kind of assay: Fatty Acid Synthase (FASN) inhibition scintillation proximity assay. Type of assay: biochemical. Conditions: for inhibition at 10 µM: read-out: Human FASN % inhibition @ 10 μM, 10 μM test compound; for IC50: read-out: Human FASN pIC50 (converted). The essentials: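 Read-out relies on hydrophobic ³H-palmitate product, formed from ³H-acetyl-CoA and malonyl-CoA, binding streptavidin imaging beads, measured at 610±20 nm after at least 24 h. Full-length enzyme (300 ng) in phosphate buffer pH 7.5 with DTT; eight compound concentrations, 0.01–30 μM.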
A general note: In a scintillation proximity assay essentially only radioactivity close to the scintillant gives light.

T1 sequence (P49327 whole entry): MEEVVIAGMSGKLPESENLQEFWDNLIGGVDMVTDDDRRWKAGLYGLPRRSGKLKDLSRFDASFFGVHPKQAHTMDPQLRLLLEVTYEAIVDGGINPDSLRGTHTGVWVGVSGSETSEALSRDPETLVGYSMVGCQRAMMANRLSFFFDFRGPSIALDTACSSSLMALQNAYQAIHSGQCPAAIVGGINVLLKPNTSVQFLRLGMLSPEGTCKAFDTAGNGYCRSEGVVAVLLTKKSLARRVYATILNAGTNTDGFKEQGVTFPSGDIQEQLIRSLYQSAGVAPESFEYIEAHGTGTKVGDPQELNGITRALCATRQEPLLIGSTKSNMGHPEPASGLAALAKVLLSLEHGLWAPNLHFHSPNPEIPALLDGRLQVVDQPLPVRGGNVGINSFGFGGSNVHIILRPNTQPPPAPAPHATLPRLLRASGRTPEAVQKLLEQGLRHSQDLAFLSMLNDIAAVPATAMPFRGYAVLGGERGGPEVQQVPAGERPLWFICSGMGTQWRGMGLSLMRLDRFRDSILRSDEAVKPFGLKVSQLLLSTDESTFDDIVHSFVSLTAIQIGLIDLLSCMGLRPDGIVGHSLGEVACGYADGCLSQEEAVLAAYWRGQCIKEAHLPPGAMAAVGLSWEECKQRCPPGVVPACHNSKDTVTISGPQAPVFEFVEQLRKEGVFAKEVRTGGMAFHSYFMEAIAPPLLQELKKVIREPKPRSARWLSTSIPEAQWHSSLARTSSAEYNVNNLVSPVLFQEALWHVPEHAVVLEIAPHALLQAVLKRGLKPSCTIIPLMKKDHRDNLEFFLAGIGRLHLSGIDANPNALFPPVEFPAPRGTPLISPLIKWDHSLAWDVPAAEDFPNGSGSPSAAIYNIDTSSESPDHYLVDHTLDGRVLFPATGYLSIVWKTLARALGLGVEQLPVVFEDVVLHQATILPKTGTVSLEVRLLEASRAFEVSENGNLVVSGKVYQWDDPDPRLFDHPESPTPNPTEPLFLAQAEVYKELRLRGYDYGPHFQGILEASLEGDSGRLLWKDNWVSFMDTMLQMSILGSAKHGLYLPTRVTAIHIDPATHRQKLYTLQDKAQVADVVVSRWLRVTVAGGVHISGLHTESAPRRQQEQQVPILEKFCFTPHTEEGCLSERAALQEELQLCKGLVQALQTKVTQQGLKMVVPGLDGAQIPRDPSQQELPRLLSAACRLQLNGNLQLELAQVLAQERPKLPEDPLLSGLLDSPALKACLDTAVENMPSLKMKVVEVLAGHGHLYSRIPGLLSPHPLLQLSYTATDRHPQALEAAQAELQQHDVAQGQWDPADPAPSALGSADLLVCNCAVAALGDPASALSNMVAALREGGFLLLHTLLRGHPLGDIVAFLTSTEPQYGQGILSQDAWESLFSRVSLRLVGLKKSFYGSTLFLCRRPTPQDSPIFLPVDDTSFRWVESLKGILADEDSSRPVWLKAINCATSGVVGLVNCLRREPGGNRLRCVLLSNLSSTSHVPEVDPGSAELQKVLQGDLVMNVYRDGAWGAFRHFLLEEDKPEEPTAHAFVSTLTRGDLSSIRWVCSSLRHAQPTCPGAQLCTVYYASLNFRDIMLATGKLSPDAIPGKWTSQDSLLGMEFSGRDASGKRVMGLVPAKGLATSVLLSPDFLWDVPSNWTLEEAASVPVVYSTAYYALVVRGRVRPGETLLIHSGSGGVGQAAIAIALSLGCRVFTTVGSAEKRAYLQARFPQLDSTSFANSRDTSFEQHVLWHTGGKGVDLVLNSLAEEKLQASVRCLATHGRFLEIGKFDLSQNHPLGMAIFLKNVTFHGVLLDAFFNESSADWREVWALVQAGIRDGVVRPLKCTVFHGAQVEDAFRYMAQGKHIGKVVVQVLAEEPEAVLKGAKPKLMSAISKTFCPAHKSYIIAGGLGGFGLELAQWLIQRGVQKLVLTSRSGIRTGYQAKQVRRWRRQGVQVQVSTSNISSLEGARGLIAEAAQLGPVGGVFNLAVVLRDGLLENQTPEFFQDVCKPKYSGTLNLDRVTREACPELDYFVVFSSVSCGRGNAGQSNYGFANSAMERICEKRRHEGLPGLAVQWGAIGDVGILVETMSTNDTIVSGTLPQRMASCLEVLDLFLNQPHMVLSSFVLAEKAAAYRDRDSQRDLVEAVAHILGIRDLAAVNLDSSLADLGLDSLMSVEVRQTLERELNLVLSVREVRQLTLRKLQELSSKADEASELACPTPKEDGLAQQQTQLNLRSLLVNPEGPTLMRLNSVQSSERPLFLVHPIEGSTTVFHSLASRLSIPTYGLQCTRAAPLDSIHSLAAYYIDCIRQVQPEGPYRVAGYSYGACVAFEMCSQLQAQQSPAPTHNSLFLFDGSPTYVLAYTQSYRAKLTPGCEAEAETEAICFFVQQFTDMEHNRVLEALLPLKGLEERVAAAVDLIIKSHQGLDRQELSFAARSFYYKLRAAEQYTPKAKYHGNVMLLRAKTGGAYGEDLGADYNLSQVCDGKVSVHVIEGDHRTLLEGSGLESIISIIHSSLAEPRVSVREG

Take `O=C(C1CC1)N1CC[C@@H](CN2C(=O)C3(CC3)N=C2c2ccc(-c3cccc(OC(F)(F)F)c3)cc2)C1` [compound 146, 6-{[(3R)-1-(Cyclopropylcarbonyl)pyrrolidin-3-yl]methyl}-5-[3′-(trifluoromethoxy)biphenyl-4-yl]-4,6-diazaspiro[2.4]hept-4-en-7-one]: the inhibition at 10 µM amounted to 38% and the IC50 was greater than 10000 nM.
The corresponding values for `CC(=O)N1CCC2(CC1)N=C(c1ccc(-c3ccc4[nH]ccc4c3)cc1)N(C[C@@H]1CCN(C(=O)C3CC3)C1)C2=O` [compound 147, (R)-2-(4-(1H-Indol-5-yl)phenyl)-8-acetyl-3-((1-(cyclopropanecarbonyl)pyrrolidin-3-yl)methyl)-1,3,8-triazaspiro[4.5]dec-1-en-4-one] are 89.5% and 70.8 nM.
The corresponding values for `CC(=O)N1CCC2(CC1)N=C(c1ccc(-c3ccc4[nH]ncc4c3)cc1)N(C[C@@H]1CCN(C(=O)C3CC3)C1)C2=O` [compound 148, 8-Acetyl-3-{[(3R)-1-(cyclopropylcarbonyl)pyrrolidin-3-yl]methyl}-2-[4-(1H-indazol-5-yl)phenyl]-1,3,8-triazaspiro[4.5]dec-1-en-4-one] are 105% and 302 nM.
As for `CC(=O)N1CCC2(CC1)N=C(c1ccc(-c3ccc4occc4c3)cc1)N(C[C@@H]1CCN(C(=O)C3CC3)C1)C2=O` [compound 150, 8-Acetyl-2-[4-(1-benzofuran-5-yl)phenyl]-3-{[(3R)-1-(cyclopropylcarbonyl)pyrrolidin-3-yl]methyl}-1,3,8-triazaspiro[4.5]dec-1-en-4-one], the inhibition at 10 µM is 113% and the IC50 is 105 nM.
`CC(C)C(=O)N1CCC2(CC1)N=C(c1ccc(-c3ccc4occc4c3)cc1)N(C[C@@H]1CCN(C(=O)C3CC3)C1)C2=O` [compound 151, 2-[4-(1-Benzofuran-5-yl)phenyl]-3-{[(3R)-1-(cyclopropylcarbonyl)pyrrolidin-3-yl]methyl}-8-(2-methylpropanoyl)-1,3,8-triazaspiro[4.5]dec-1-en-4-one]: the inhibition at 10 µM amounted to 112% and the IC50 was 129 nM.
The corresponding values for `O=C(C1CC1)N1CCC2(CC1)N=C(c1ccc(-c3ccc4occc4c3)cc1)N(C[C@@H]1CCN(C(=O)C3CC3)C1)C2=O` [compound 152, 2-[4-(1-Benzofuran-5-yl)phenyl]-8-(cyclopropylcarbonyl)-3-{[(3R)-1-(cyclopropylcarbonyl)pyrrolidin-3-yl]methyl}-1,3,8-triazaspiro[4.5]dec-1-en-4-one] are 123% and 123 nM.
The corresponding values for `CN(C)CC(=O)N1CCC2(CC1)N=C(c1ccc(-c3ccc4occc4c3)cc1)N(C[C@@H]1CCN(C(=O)C3CC3)C1)C2=O` [compound 153, 2-[4-(1-Benzofuran-5-yl)phenyl]-3-{[(3R)-1-(cyclopropylcarbonyl)pyrrolidin-3-yl]methyl}-8-(N,N-dimethylglycyl)-1,3,8-triazaspiro[4.5]dec-1-en-4-one] are 116% and 105 nM.
As for `CN(C)CC(=O)N1CCC2(CC1)N=C(c1ccc(-c3ccc4cnccc4c3)cc1)N(CC1CN(C(=O)C3CC3)C1)C2=O` [compound 154, 3-{[1-(Cyclopropylcarbonyl)azetidin-3-yl]methyl}-8-(N,N-dimethylglycyl)-2-(4-isoquinolin-6-ylphenyl)-1,3,8-triazaspiro[4.5]dec-1-en-4-one], the inhibition at 10 µM was 109% and the IC50 is 269 nM.
For the compound `Cc1cc2cc(-c3ccc(C4=NC5(CCNCC5)C(=O)N4C[C@@H]4CCN(C(=O)C5CC5)C4)cc3)ccc2o1` [compound 155], the inhibition at 10 µM was 96.5% and the IC50 is 776 nM.
For `COc1cc(-c2ccc3occc3c2)ccc1C1=NC2(CCCC2)C(=O)N1C[C@@H]1CCN(C(=O)C2CC2)C1` [compound 156, 2-[4-(1-Benzofuran-5-yl)-2-methoxyphenyl]-3-{[(3R)-1-(cyclopropylcarbonyl)pyrrolidin-3-yl]methyl}-1,3-diazaspiro[4.4]non-1-en-4-one], the inhibition at 10 µM amounted to 108% and the IC50 was 191 nM.
As for `COc1cc(-c2ccc3[nH]ccc3c2)ccc1C1=NC2(CCCC2)C(=O)N1C[C@@H]1CCN(C(=O)C2CC2)C1` [compound 157, 3-{[(3R)-1-(Cyclopropylcarbonyl)pyrrolidin-3-yl]methyl}-2-[4-(1H-indol-5-yl)-2-methoxyphenyl]-1,3-diazaspiro[4.4]non-1-en-4-one], the inhibition at 10 µM worked out at 112% and the IC50 was 67.6 nM.
Turning to `O=C(C1CC1)N1CCC(CN2C(=O)C3(CC3)N=C2c2ccc(-c3cccc(F)c3)cc2)CC1` [compound 158, 6-{[1-(Cyclopropylcarbonyl)piperidin-4-yl]methyl}-5-(3′-fluorobiphenyl-4-yl)-4,6-diazaspiro[2.4]hept-4-en-7-one], the inhibition at 10 µM was determined as 33% and the IC50 is greater than 10000 nM.
On to `O=C(C1CC1)N1CC[C@@H](CN2C(=O)C3(CCN(CCO)CC3)N=C2c2ccc(-c3ccc4cnccc4c3)cc2)C1` [compound 159, 3-{[(3R)-1-(Cyclopropylcarbonyl)pyrrolidin-3-yl]methyl}-8-(2-hydroxyethyl)-2-(4-isoquinolin-6-ylphenyl)-1,3,8-triazaspiro[4.5]dec-1-en-4-one], for which the inhibition at 10 µM came to 116% and the IC50 was 79.4 nM.
`CC(=O)N1CCC2(CC1)N=C(c1ccc(-c3ccc4c(c3)CCN(C(C)=O)C4)cc1)N(C[C@@H]1CCN(C(=O)C3CC3)C1)C2=O` [compound 160]: the inhibition at 10 µM stood at 29.3% and the IC50 was greater than 10000 nM.
In the case of `CC(=O)N1CCC2(CC1)N=C(c1ccc(C3=CC4CCN(C(C)=O)CC4C=C3)cc1)N(C[C@@H]1CCN(C(=O)C3CC3)C1)C2=O` (stereo partly drawn) [compound 161, 8-Acetyl-2-[4-(2-acetyl-1,2,3,4,4a,8a-hexahydroisoquinolin-6-yl)phenyl]-3-{[(3R)-1-(cyclopropylcarbonyl)pyrrolidin-3-yl]methyl}-1,3,8-triazaspiro[4.5]dec-1-en-4-one], the inhibition at 10 µM was 16% and the IC50 was greater than 10000 nM.
`CC(C)N1CCC2(CC1)N=C(c1ccc(-c3ccc4cnccc4c3)cc1)N(C[C@@H]1CCN(C(=O)C3CC3)C1)C2=O` [compound 163]: the inhibition at 10 µM stood at 110% and the IC50 was 229 nM.
With `CN(C)CC(=O)N1CCC2(CC1)N=C(c1ccc(-c3ccc4[nH]ccc4c3)cc1)N(C[C@@H]1CCN(C(=O)C3CC3)C1)C2=O` [compound 164, 3-{[(3R)-1-(Cyclopropylcarbonyl)pyrrolidin-3-yl]methyl}-8-(N,N-dimethylflycyl)-2-[4-(1H-indol-5-yl)phenyl]-1,3,8-triazaspiro[4.5]dec-1-en-4-one], the inhibition at 10 µM is 115% and the IC50 is 39.8 nM.
`CN(C)CC(=O)N1CCC2(CC1)N=C(c1ccc(-c3ccc4[nH]ncc4c3)cc1)N(C[C@@H]1CCN(C(=O)C3CC3)C1)C2=O` [compound 165, 3-{[(3R)-1-(Cyclopropylcarbonyl)pyrrolidin-3-yl]methyl}-8-(N,N-dimethylglycyl)-2-[4-(1H-indazol-5-yl)phenyl]-1,3,8-triazaspiro[4.5]dec-1-en-4-one]: the inhibition at 10 µM is 108% and the IC50 was 229 nM.

Broadly, the inhibition is the relative decrease from the control value, in per cent.
